Patent US5932709A (University of Michigan, priority 1997, dated 1999)
In brackets after ≈: the same amount, converted by molar mass.

Assays:
[1] = in vivo; details: mouse, in vivo, ip
Description: For all the models, the vehicle used to deliver the analog of interest was isotonic saline.
For the MX-1 human breast tumor xenograft models, the following procedure was used. Nude mice are implanted s.c. by trocar with fragments of MX-1 mammary carcinomas harvested from s.c. growing MX-1 tumors in nude mice hosts. When tumors are approximately 5 mm×5 mm in size (usually about ten days after inoculation), the animals are pair-matched into treatment and control groups. Each group contains ten tumored mice, each of which is ear-tagged and followed individually throughout the experiment. The administration of drugs or vehicle begins the day the animals are pair-matched (day 1). The doses, route of drug administration and schedule are selected as appropriate for the study in question. If the MTD dose of an agent is not known, it is determined in an initial dosing experiment in non-tumored mice. In a typical experiment, drugs are given at their MTD and 1/2 MTD doses i.p. on a daily×5 schedule.
The experiment is usually terminated when control tumors reach a size of 2-3 g. Mice are weighed twice weekly, and tumor measurements are taken by calipers twice weekly, starting on day 1. These tumor measurements are converted to mg tumor weight by a well known formula, and from these calculated tumor weights the termination date can be determined. Upon termination, all mice are weighed, sacrificed, and their tumors excised. Tumors are weighed, and the mean tumor weight per group is calculated.
Some drugs cause tumor shrinkage in the MX-1 model. With these agents, the final weight of a given tumor is subtracted from its own weight at the start of the treatment on day 1. This difference divided by the initial tumor weight is the % shrinkage. A mean % tumor shrinkage can be calculated from data from the mice in a group that experienced MX-1 regressions. If the tumor completely disappears in a mouse, this is considered a complete regression or complete tumor shrinkage. If desired, mice with partial or total tumor regressions can be kept alive past the termination date to see whether they live to become long term, tumor-free survivors.
Note that in the following table the abbreviation SR refers to tumor shrinkage rate, while those entries followed by a superscripted `2` are tumor growth inhibition rates, not tumor shrinkage rates.

[2] = Murine B16 melanoma model in vivo; parameters: species or system mouse (B6D2F1); details: mouse, in vivo, ip; i.p. daily×5
Procedure: 1) Murine B16 Melanoma Model
(§1) For the B16 melanoma model, the following procedure was used. B6D2F1 mice receive i.p. inocula of B16 murine melanoma brei prepared from B16 tumors growing s.c. in mice (day 0). […] If dosing information for agents is not available, the maximum tolerated dose (MTD) is determined in initial dose finding experiments in non-tumored mice.
(§2) The mean survival times of all groups are calculated, and results are expressed as mean survival of treated mice/mean survival of control mice (T/C)×100%. A T/C value of 150 means that the mice in the treated group lived 50% longer than those of the control group; this is sometimes referred to as the increase in life span or ILS value.
Mice that survive for 60 days are considered long-term survivors, or cures, in the B16 model. The universally accepted cut-off for activity in this model, which has been for years by the National Cancer Institute, is T/C=125. Conventional use of B16 over the years has set the following levels of activity: T/C<125, no activity, T/C=125-150, weak activity; T/C=150-200, modest activity; T/C=200-300, high activity; T/C>300, with long term survivors; excellent, curative activity.

[3] = Murine P388 leukemia model in vivo; parameters: species or system mouse (B6D2F1); details: mouse, in vivo, ip; i.p. daily×5
Procedure: as §1, §2
For the P388 leukemia model, the procedure followed is exactly the same as the aforementioned B16 model. The tumor inoculum is prepared by removing ascited fluid containing P388 cells from tumored B6D2F1 mice, centrifuging the cells, and then resuspending the leukemia cells in saline. Mice receive 1×10^6 P388 cells i.p. on day 0.

[4] = test system: human lung tumor xenograft; experiment: Human lung tumor xenograft model; type: in vivo, human tumor in nude mice
Description: For the human lung and prostate tumor xenograft models the following procedure was used. Nude mice were implanted s.c. by trocar with fragments of human lung or prostate carcinomas harvested from s.c. growing tumors in nude mice hosts. When tumors were approximately 5 mm×5 mm in size (usually ten to fourteen days after inoculation), the animals were pair-matched into treatment and control groups. Each group contained 10 tumored mice, each of which was ear-tagged and followed individually throughout the experiment. […] The doses, route of drug administration and schedule were selected as appropriate for the study in question. (See above protocol). […] Topotecan was run as a positive control at its MTD dose on a daily×5 and a daily×1 schedule. Male nude mice were used for both prostate studies.
Mice are weighed twice weekly, and tumor measurements were taken by calipers twice weekly, starting on day 1.
Some drugs cause tumor shrinkage in the human tumor xenograft models. […] A mean % tumor shrinkage can be calculated from the data from the mice in a group that experienced tumor regressions.

[5] = Solubility of HAR7 in various solvents and solvent systems; type: physicochemical
Procedure: In addition to testing for water solubility, one of the analogs of the present invention, HAR7, was tested for solubility in various other solvents and solvent mixtures, to determine the system which provides the greatest solubility for the analog. The results of those solubility experiments are shown below in Table 2:
The solubility of HAR7 in various solvents and solvent systems was measured using one of two experimental methods, depending on the conditions and solvents used.
First, an evaporation method was used in which an excess quantity of HAR7 was added to the solvent of choice. The mixture was finely divided using ultrasonic vibration in order to dissolve the material thoroughly. The resulting mixture was filtered and the solution was evaporated to dryness using a rotary evaporator.
Second, a spectrophotometric method was used in which an excess quantity of HAR7 was added to the solvent of choice. The mixture was finely divided using ultrasonic vibration in order to dissolve the maximum amount of solid. The resulting suspension was filtered through a 0.45 μm nylon filter, and the clear solution was diluted in the same solvent and its concentration was measure spectrophotometrically, based upon an extinction coefficient of 17000 at 258 nm.

CC[C@@]1(O)C(=O)OCc2c1cc1n(c2=O)Cc2c-1nc1ccccc1c2CO[C@@H]1C=C[C@H](OC(C)=O)[C@@H](COC(C)=O)O1 [HAR4, 7-[4,6-di-O-acetyl-2,3-dideoxy-α-D-erythro-hex-2-enopyranosyl]oxymethylcamptothecin]
MTD [1]: 10 mg/kg
MTD [2]: 20 mg/kg

CC[C@@]1(O)C(=O)OCc2c1cc1n(c2=O)Cc2c-1nc1ccccc1c2CO[C@@H]1C=C[C@H](O[C@H]2O[C@H](CO)[C@@H](O)[C@H](O)[C@H]2O)[C@@H](CO)O1 [HAR6, 7-[4-O-(α-D-glucopyranosyl)-2,3-dideoxy-α-D-erythro-hex-2-enopyranosyl]-oxymethylcamptothecin]
MTD [1]: 100 mg/kg
MTD [3]: 100 mg/kg
MTD [2]: 100 mg/kg

CC[C@@]1(O)C(=O)OCc2c1cc1n(c2=O)Cc2c-1nc1ccccc1c2CO[C@@H]1C=C[C@H](O)[C@@H](CO)O1 [HAR7, 7-[2,3-dideoxy-α-D-erythro-hex-2-enopyranosyl]-oxymethylcamptothecin]
complete disappearance of tumors (animals) ([4]; 30 mg/kg daily×5): 2
Deaths ([4]; 30 mg/kg × 5 days): 0/10
Shrink (% Tumor Shrinkage Rate) ([4]; 30 mg/kg × 5 days): 100%
Shrink (number of animals) ([4]; 30 mg/kg × 5 days): 2/10
TGI (% Tumor Growth Inhibition Rate) ([4]; 30 mg/kg × 5 days): 67%
TGI (number of animals) ([4]; 30 mg/kg × 5 days): 8/10
Deaths ([4]; 200 mg single ds): 1/10
Shrink (% Tumor Shrinkage Rate) ([4]; 200 mg single ds): 67%
Shrink (number of animals) ([4]; 200 mg single ds): 2/10
TGI (% Tumor Growth Inhibition Rate) ([4]; 200 mg single ds): 64%
TGI (number of animals) ([4]; 200 mg single ds): 7/10
activity against lung xenograft model ([4]; in words): outstanding activity
efficacy, single dose ([4]; single dose, in words): significant tumor growth inhibition
solubility ([5]; 0.1 m citrate buffer, aqueous buffer): 24 µg/mL (≈ 47.4 µM)
solubility ([5]; 0.2 m acetate buffer, aqueous buffer): 23 µg/mL (≈ 45.4 µM)
solubility ([5]; 0.2 m na2hpo4 buffer, aqueous buffer): 30 µg/mL (≈ 59.2 µM)
solubility ([5]; 0.2 m nah2po4 buffer, aqueous buffer): 32 µg/mL (≈ 63.2 µM)
solubility ([5]; 2 m acetate buffer, aqueous buffer): 29 µg/mL (≈ 57.3 µM)
solubility ([5]; 4:1:5 pg/ethanol/dsw, organic solvent or mixture): 960 µg/mL (≈ 1900 µM)
solubility ([5]; 4:1:5 pg/ethanol/saline, organic solvent or mixture): 893 µg/mL (≈ 1760 µM)
solubility ([5]; 4:1:5 pg/ethanol/water, organic solvent or mixture): 740 µg/mL (≈ 1460 µM)
solubility ([5]; 5% ethanol/dsw, organic solvent or mixture): 177 µg/mL (≈ 349 µM)
solubility ([5]; 5% ethanol/water, organic solvent or mixture): 80 µg/mL (≈ 158 µM)
solubility ([5]; 10% ethanol/water, organic solvent or mixture): 143 µg/mL (≈ 282 µM)
solubility ([5]; 20% ethanol/water, organic solvent or mixture): 380 µg/mL (≈ 750 µM)
solubility ([5]; organic solvent or mixture, PEG 300 (Polyethylene Glycol 300)): > 5000 µg/mL
solubility ([5]; pure ethanol, organic solvent or mixture): 1980 µg/mL (≈ 3920 µM)
